Entries after “also recorded” stand apart in the source; their conditions may differ. Where a SMILES comes first, the peptide text is derived from it. Where no end group is shown, it is not given here. [ ]: non-standard residue; d: D form.
Columns and labels:
Assay type in all cases: cell-based
[1] = molecular target: T1, FPR (Homo sapiens, UniProt P21462); assay: Exocytosis: β-hexosaminidase secretion in FPR-expressing RBL-2H3 cells; details: for granule secretion / β-hexosaminidase release (words): FPR cells, 10 μM of each peptide (WKYMVm also various concentrations)
T1 construct: expressed in transfected cells; host or cells: RBL-2H3 (rat basophilic leukemia) cells, G418-selected
T1 sequence (P21462 1-350): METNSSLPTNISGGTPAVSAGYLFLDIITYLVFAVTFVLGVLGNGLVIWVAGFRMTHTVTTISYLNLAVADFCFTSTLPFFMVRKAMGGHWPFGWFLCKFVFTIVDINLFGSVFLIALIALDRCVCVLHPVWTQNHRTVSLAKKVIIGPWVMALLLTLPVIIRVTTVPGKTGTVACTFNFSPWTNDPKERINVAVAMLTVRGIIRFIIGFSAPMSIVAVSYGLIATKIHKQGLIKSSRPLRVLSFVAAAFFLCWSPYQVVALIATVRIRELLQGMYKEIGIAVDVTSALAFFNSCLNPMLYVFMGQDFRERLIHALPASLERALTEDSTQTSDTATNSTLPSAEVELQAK
Procedure: (§1) Granule secretion is one of the most important function of mast cells (20). The effect of WKYMVm on granule secretion was checked by measuring β-hexosaminidase secretion as described above (18). Briefly, RBL-2H3 cells (2×10^5/well) expressing FPR or FPRL1 were cultured overnight in a 24-well tissue culture plate. The cells were washed twice with Tyrode's buffer (137 mM NaCl, 12 mM NaHCO3, 5.6 mM glucose, 2.7 mM KCl, 1 mM CaCl2, 0.5 mM MgCl2, 0.4 mM NaH2PO4, 0.1g/100 ml BSA, and 25 mM HEPES, pH 7.4) and stimulated with each peptide. Various concentrations of WKYMVm were treated in FPR- or FPRL1-expressing RBL-2H3 cells (FIG. 5A). 1 μM of WKYMVm was used to stimulate two cell lines in the absence or presence of 10 μM BAPTA/AM (FIG. 5B). The reaction was terminated 20 min after stimulation by placing the plate on ice. Secretion of β-hexosaminidase into the medium was determined by incubating 50 μl of supernatant or cell lysate with 25 μl of 5 mM p-nitrophenyl-N-acetyl-β-D-glucosamide in 0.1 M sodium citrate buffer (pH 3.8) at 37° C. for 2 hr. At the end of the incubation, 50 μl of 0.4 M Na2CO3 were added. Absorbance was monitored at 405 nm. Data are means ±S.E. of a single representative of three experiments performed in triplicate. Values (means ±S.E.) were expressed as a percent of total β-hexosaminidase present in the cells.
From the new finding that cytosolic calcium release was induced by WKYMVm and many of the substituted peptides of WKYMVm but not by some of them (WKGMVm (SEQ ID NO: 1), WKRMVm (SEQ ID NO: 11), D-Met^6 substituted peptides), the effect of the peptides on granule secretion in RBL cells was checked. 10 μM of each peptide was treated in FPR- (FIG. 6A) or FPRL1-expressing RBL-2H3 cells (FIG. 6B). The peptide-induced secretion of β-hexosaminidase was determined as above. Data are means ±S.E. of a single representative of three experiments performed in triplicate.

[2] = molecular target: T1, FPR; assay: Akt phosphorylation in FPR-expressing RBL-2H3 cells (immunoblot); details: 10 μM peptides 2 min (WKYMVm time course 1 μM)
Procedure: It is well known that activation of chemoattractant receptors induces Akt activation via PI3K (19). Stimulation of cells with the peptides, electrophoresis and immunoblot analysis were performed according to the same method as in Example 5.
FPR- or FPRL1-expressing RBL-2H3 cells were stimulated with 1 μM WKYMVm for various periods of time (FIG. 4A). Two cells were preincubated with a vehicle or 100 ng/ml of PTX (24 hr), 50 μM of LY294002 (15 min), 5 μM of GFX (15 min), 10 μM BAPTA/AM (60min), or 50 μM PD98059 (60 min) prior to treatment with 1 μM of WKYMVm (FIG. 4B). FPR- and FPRL1-expressing RBL2H3 cells were stimulated with 10 μM of WKYMVm and the present peptides for 2 min or 5 min, respectively (FIG. 4C). Each sample (30 μg of protein) was subjected to 10% SDS-PAGE and phosphorylated Akt was determined by immunoblot analysis with an anti-phospho-Akt antibody. A western blot analysis with an anti-Akt antibody was performed to confirm that the same amounts of samples were used for the experiments. The results are shown FIGS. 4A to 4C. Results of FIGS. 4A to 4C are the representative of 3 independent experiments.

[3] = molecular target: T2, FPRL1 (Homo sapiens, UniProt P25090); assay: Exocytosis: β-hexosaminidase secretion in FPRL1-expressing RBL-2H3 cells; details: for granule secretion / β-hexosaminidase release (words): FPRL1 cells, 10 μM of each peptide (WKYMVm also various concentrations)
T2 construct: expressed in transfected cells; host or cells: RBL-2H3 (rat basophilic leukemia) cells, G418-selected
T2 sequence (P25090 1-351): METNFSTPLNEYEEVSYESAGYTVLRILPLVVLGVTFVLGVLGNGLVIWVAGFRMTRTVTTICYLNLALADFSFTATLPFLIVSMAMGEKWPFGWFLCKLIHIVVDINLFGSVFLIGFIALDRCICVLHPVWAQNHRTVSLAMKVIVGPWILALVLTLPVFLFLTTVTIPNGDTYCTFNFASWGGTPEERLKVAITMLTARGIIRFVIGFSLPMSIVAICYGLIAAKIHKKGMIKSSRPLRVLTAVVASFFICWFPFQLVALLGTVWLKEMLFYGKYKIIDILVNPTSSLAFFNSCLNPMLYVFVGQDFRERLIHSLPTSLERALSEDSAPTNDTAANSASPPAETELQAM
Procedure: as §1
10 μM of each peptide was treated in FPR- (FIG. 6A) or FPRL1-expressing RBL-2H3 cells (FIG. 6B). The peptide-induced secretion of β-hexosaminidase was determined as above. Data are means ±S.E. of a single representative of three experiments performed in triplicate.

Molecule	granule secretion / β-hexosaminidase release (words) [1]	Akt phosphorylation [2]	granule secretion / β-hexosaminidase release (words) [3]	concentration showing maximal β-hexosaminidase release ([1]; FPR-expressing RBL-2H3 cells)	concentration showing maximal β-hexosaminidase release ([3]; FPRL1-expressing RBL-2H3 cells)	granule secretion / β-hexosaminidase release (words) ([3]; listed as WKYMVm)	granule secretion / β-hexosaminidase release (words) ([3]; listed as wkymvm)
CSCC[C@H](NC(=O)CNC(=O)[C@H](CCCCN)NC(=O)[C@@H](N)Cc1c[nH]c2ccccc12)C(=O)N[C@H](C(=O)N[C@H](CCSC)C(N)=O)C(C)C [WKGMVm-NH2, Trp-Lys-Gly-Met-Val-D-Met-NH2] (H-WKGMV[dM]-NH2; N-terminus assumed)	could not effect granule secretion	caused Akt phosphorylation	stimulated granule secretion				
CSCC[C@H](NC(=O)[C@H](CCCNC(=N)N)NC(=O)[C@H](CCCCN)NC(=O)[C@@H](N)Cc1c[nH]c2ccccc12)C(=O)N[C@H](C(=O)N[C@H](CCSC)C(N)=O)C(C)C [WKRMVm-NH2, Trp-Lys-Arg-Met-Val-D-Met-NH2] (H-WKRMV[dM]-NH2; N-terminus assumed)	could not effect granule secretion	caused Akt phosphorylation	stimulated granule secretion				
CSCC[C@H](NC(=O)[C@H](Cc1ccc(O)cc1)NC(=O)[C@H](CCCCN)NC(=O)[C@@H](N)Cc1c[nH]c2ccccc12)C(=O)N[C@H](C(=O)N[C@H](CCSC)C(N)=O)C(C)C [WKYMVm-NH2, Trp-Lys-Tyr-Met-Val-D-Met-NH2, reference compound]	caused β-hexosaminidase release in a concentration-dependent manner	caused Akt phosphorylation		100 nM	10 nM	caused β-hexosaminidase release in a concentration-dependent manner; also recorded: stimulated granule secretion	but not fMLF or wkymvm, stimulated granule secretion
WKYMVE-NH2 [WKYMVE-NH2, Trp-Lys-Tyr-Met-Val-Glu-NH2]		caused Akt phosphorylation	stimulated granule secretion				
WKYMVR-NH2 [WKYMVR-NH2, Trp-Lys-Tyr-Met-Val-Arg-NH2]		caused Akt phosphorylation	stimulated granule secretion				

— US7517857B2, “Immune-modulating peptide” (POSCO, priority 2002, dated 2009)
